Experiments:
Type in all cases: cell-based
[1] = biological target: T1, Fyn (Homo sapiens, UniProt P06241); assay: Fyn fatty acylation (IC13/IC16 incorporation) in transfected COS-1 cells; details: COS-1 cells, 100 μM 2-bromopalmitate, normalized for total protein levels
T1 construct: expressed in transfected cells; host or cells: COS-1
Procedure: The syntheses of 13-[^125I]-iodotridecanoic acid (IC13)or 16-[^125I]-iodohexanoic acid (IC16) were carried out as described previously (39). Cell labeling was carried out as described (12,13) with modifications. Briefly, each 60 mm plate of Fyn transfected COS-1 cells was incubated O/N in DMEM containing 2.5% FBS, 0.5% defatted BSA (Sigma) with or without 100 μM 2-bromopalmitate or 50 μM polyunsaturated fatty acid. Prior to labeling, the cells were incubated for 1 hr with 1 ml of DMEM containing 2% dialyzed FBS, then labeled for 4 hours with 25-50 μCi IC13 or IC16 in DMEM containing 2% dialyzed FBS, 0.5% defatted BSA with or without 2-bromopalmitate or polyunsaturated fatty acid. Labeled cells were washed three times with cold STE (100 mM NaCl, 10 mM Tris pH 7.4, 1 mM EDTA) and lysed in 0.6 ml of cold RIPA buffer containing protease inhibitors (10 μg/ml each of benzamidine, AEBSF, TPCK and TLCK, 1.5 μg/ml each of Leupeptin, Pepstatin A and Aprotinin). Lysates were clarified at 100,000×g for 15 min at 4° C. in a Beckman TL-100 ultracentrifuge. Lysates were immunoprecipitated with rabbit anti-Fyn antibody and protein A-agarose. Immunoprecipitates were washed three times with cold RIPA buffer and suspended in 1× sample buffer containing 100 mM dithiothreitol and subjected to SDS-PAGE. Gels were dried between cellophane and analyzed by phosphorimaging after 12-36 hours exposure. Experiments in Jurkat T cells were carried out according to the above protocol using 2×10^7 cells per experiment, and reducing the incubation time with 2-bromopalmitate to 3-4 hours.
A number of palmitic acid analogs were screened for their ability to inhibit Fyn palmitoylation. COS-1 cells were transfected with cDNA encoding Fyn. Three days after transfection, the cells were labeled with either [^35S]-methionine, 13-[^125I]-iodotridecanoic acid (IC13), an iodinated myristate analog, or 16-[^125I]-iodohexanoic acid (IC16), an iodinated palmitic acid analog (39), in the presence or absence of nonradioactive palmitate analogs. Cells were lysed, immunoprecipitated with anti-Fyn antibody, and analyzed by SDS-PAGE and phosphorimaging. […] When normalized for total protein levels, 70% of Fyn myristoylation and over 90% of Fyn palmitoylation was inhibited in the presence of 2-bromopalmitate. Treatment of cells with other analogs, including 2-hydroxypalmitate, palmitoleic acid and 16-hydroxypalmitate had no effect (data not shown).
To test this hypothesis, Fyn transfected COS-1 cells were incubated O/N with or without 50 μM arachidonic acid (20:4) or eicosapentaenoic acid (20:5), then labeled with IC13 or IC16. Total protein levels were monitored by immunoblotting aliquots of each sample with anti-Fyn antibody (FIG. 8A, lower panel).

[2] = test system: PLC-γl; assay: CD3-mediated tyrosine phosphorylation of PLC-γl in Jurkat cells; details: 100 μM 3 hours, OKT3
Procedure: Jurkat T cells (2×10^6−1×10^7) were centrifuged at 1,000×g for 5 minutes, rinsed with RPMI, resuspended in RPMI supplemented with 2% dialyzed FBS, 0.5% defatted BSA, and incubated with or without 100 μM 2-bromopalmitate at 8×10^5 cells/ml for 3 hours. The cells were centrifuged, washed with RPMI and resuspended in RPMI at 1×10^7−1×10^8 cells/ml. The cells were then activated with anti-CD3 OKT3 mAb (0.3 mg/ml) for 3 min at 37° C., quickly spun down, washed once with cold RPMI and once with cold STE, and lysed in RIPA Samples were solubilized in 1× sample buffer containing 5% β-mercaptoethanol and subjected to SDS-PAGE, followed by immunoblotting with anti-phosphotyrosine antibody (PY99). For analysis of specific proteins, RIPA lysates were immunoprecipitated with the specific antibodies O/N, and immunoblotted for phosphotyrosine. Alternatively, proteins were immunoprecipitated with agarose-conjugated anti phosphotyrosine antibody and blotted for the specific proteins.
In order to identify the individual proteins whose tyrosine phosphorylation is affected by 2-bromopalmitate, lysates were immunoprecipitated with a panel of specific antibodies, and immunoblotted for phosphotyrosine. Alternatively, lysates were immunoprecipitated with an antiphosphotyrosine antibody, and blotted with antibodies to specific proteins.

[3] = test system: Jurkat cells; assay: Toxicity control: LAT and actin levels by immunoblot in Jurkat cells; details: toxicity check, data not shown
Procedure: To verify that the observed inhibition of T cell receptor-mediated tyrosine phosphorylation was not a result of toxicity effects of 2-bromopalmitate, aliquots of each sample were analyzed by immunoblotting with anti-LAT and anti-actin antibodies. The levels of LAT and actin were not affected by 2-bromopalmitate (data not shown). Thus 2-bromopalmitate was able to inhibit signaling through the T cell receptor, as assayed by its ability to inhibit tyrosine phosphorylation of key substrate proteins.

[4] = test system: Jurkat T cells; assay: Calcium mobilization assay in Jurkat T cells (fluo-3, flow cytometry)
Procedure: Jurkat cells were treated with 2-bromopalmitate as described above. The cells (2×10^5) were collected by centrifugation and resuspended at 2×10^6 cells/ml in RPMI containing in 50 μM fluo-3 with or without 100 μM 2-bromopalmitate for 30 minutes at room temperature. Cells loaded with fluo-3 were then collected by centrigation, washed with Hank's Buffered Saline Solution (5.4 mM KCl, 0.3 mM Na2HPO4, 0.4 mM KH2PO4, 4 mM NaHCO3, 1.3 mM CaCl2, 0.5 mM MgCl2, 0.6 mM MgSO4, 137 mM NaCl, 5.6 mM glucose, 20 mM Hepes pH 7.4) and resuspended in the same buffer at 5×10^5 cells/ml at 37° C. To initiate calcium flux, the cells were activated with OKT3 antibody as described above, and analyzed for free calcium ion by measurement of fluo-3 fluoresence emission by flow cytometry.
Jurkat cells were incubated with or without 2-bromopalmitate, washed and stained with the fluorescent dye fluo-3 (50 μM). Cells were activated with OKT3 antibody and analyzed by flow cytometry. […] No effect of 2-bromopalmitate on cells incubated in the absence of OKT3 was noted.

T1 sequence (P06241 whole entry, species assumed): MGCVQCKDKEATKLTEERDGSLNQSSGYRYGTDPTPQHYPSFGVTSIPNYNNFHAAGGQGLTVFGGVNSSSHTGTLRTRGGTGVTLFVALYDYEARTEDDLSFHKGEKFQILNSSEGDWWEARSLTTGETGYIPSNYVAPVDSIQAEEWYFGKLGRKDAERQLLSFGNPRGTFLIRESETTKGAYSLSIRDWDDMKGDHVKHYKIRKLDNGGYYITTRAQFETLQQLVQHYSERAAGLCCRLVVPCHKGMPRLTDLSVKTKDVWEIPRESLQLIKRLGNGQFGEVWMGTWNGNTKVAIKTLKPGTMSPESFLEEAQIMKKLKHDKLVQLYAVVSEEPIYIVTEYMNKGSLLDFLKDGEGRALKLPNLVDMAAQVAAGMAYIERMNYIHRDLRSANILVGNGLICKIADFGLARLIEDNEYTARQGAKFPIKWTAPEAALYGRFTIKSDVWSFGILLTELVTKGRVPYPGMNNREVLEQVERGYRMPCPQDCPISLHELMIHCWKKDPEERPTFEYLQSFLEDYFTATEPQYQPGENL

In the case of `CCCCCCCCCCCCCCC(Br)C(=O)O` (stereo not drawn) [2-bromopalmitate], the Fyn myristoylation inhibited ([1]; IC13 label) is reported as 70%, the Fyn palmitoylation inhibited ([1]; IC16 label) is reported as “over 90%” and the PLC-γl phosphorylation inhibited [2] is reported as 70%. The “levels of LAT and actin” value [3] was “not affected”, the “calcium flux in response to T cell receptor activation” value ([4]; 100 μM, OKT3 activated) was “shut down almost completely” and the “effect on calcium in cells incubated in the absence of OKT3” value ([4]; no OKT3) was “No effect”.

From patent US6890954B1, “Uses of 2-bromopalmitate in the treatment of autoimmune disease” (priority 1999, dated 2005)
